# Laboratory results from US10501454B2, “Monocyclic β-lactam-siderophore conjugate, and preparation method and use thereof” (Shanghai Institute of Materia Medica, Chinese Academy of …, priority 2016, dated 2019).
# Counter-ions that a name gives are not always drawn.
# Legend:
# [1] = system: Acinetobacter baumannii (4 strains); assay: MIC, broth microdilution, iron-deficient MH medium; assay type: cell-based; settings: Acinetobacter baumannii; iron-deficient MH medium (16 mg/L 2,2'-bipyridine); multidrug-resistant clinical isolates (integron I, OXA23); read-out: Antibacterial activity MIC, Acinetobacter baumannii (4 strains)
# Method: (§1) Supplier of the strains: all of the above strains were provided by Sichuan Primed Shines Bio-tech Co., Ltd. A single colony was isolated by streaking on agar plates for each strain prior to the experiment, and the cells freshly cultured at 37° C. overnight were appropriately diluted for the experiment.
# (§2) Medium: MH liquid medium (OXOID).
# (§3) Culture condition: cells were incubated at 35-37° C. for 16-18 h.
# (§4) The broth microdilution method recommended by Clinical and Laboratory Standards Institute (CLSI), Performance Standards for Antimicrobial Susceptibility Testing; Twenty-Third Informational Supplement, M02-All, M07-A9 and M11-A8, 2013 was used to determine the MIC value of each test sample against each test strain in the normal MH medium and iron-deficient MH medium.
# (§5) BPL was added to the normal MH medium to obtain a final concentration of 16 mg/L; According to the method in Section 1.2.1, 100 μl of each test sample solution at different concentrations was aspirated to the 1st to 10th well in a 96-well sterile polystyrene plate to obtain the final drug concentrations of 16, 8, 4, 2, 1, 0.5, 0.25, 0.125, 0.06, and 0.03 mg/L, respectively. Then, 100 μl of the test bacterial liquid was added to each well (200 μl per well), and the final concentration of the bacterial liquid was approximately 10^4 CFU/ml. After sealing, it was placed in a 35-37° C. incubator for 18-20 hours for testing the result. The OD600 value was measured by a microplate reader, Minimal Inhibitory Concentration (MIC) of a drug is the lowest concentration of the drug which prevents growth of bacteria in the wells.
# [2] = system: Pseudomonas aeruginosa (4 strains); assay: MIC, broth microdilution, iron-deficient MH medium; assay type: cell-based; settings: Pseudomonas aeruginosa; iron-deficient MH medium (16 mg/L 2,2'-bipyridine); multidrug-resistant clinical isolates (integrator I, IMP4); read-out: Antibacterial activity MIC, Pseudomonas aeruginosa (4 strains)
# Method: as §1, §2, §3, §4, §5
# [3] = system: Klebsiella pneumoniae (4 strains); assay: MIC, broth microdilution, iron-deficient MH medium; assay type: cell-based; settings: for MIC: Klebsiella pneumoniae, iron-deficient MH medium (16 mg/L 2,2'-bipyridine), multi-drug resistant clinical isolates (KPC2), read-out: Antibacterial activity MIC, Klebsiella pneumoniae (4 strains); for times more effective than BAL30072 in inhibitory activity against Klebsiella pneumonia: iron-deficient MH medium, from MIC of Table 3
# Method: as §1, §2, §3, §4, §5
# [4] = system: Escherichia coli (4 strains); assay: MIC, broth microdilution, iron-deficient MH medium; assay type: cell-based; settings: Escherichia coli; iron-deficient MH medium (16 mg/L 2,2'-bipyridine); clinical isolates (ESBLs); read-out: Antibacterial activity MIC, Escherichia coli (4 strains)
# Method: as §1, §2, §3, §4, §5
# [5] = system: Acinetobacter baumannii (4 strains); assay: MIC, broth microdilution, normal MH medium; assay type: cell-based; settings: Acinetobacter baumannii, read-out: Antibacterial activity MIC, Acinetobacter baumarmii (4 strains)
# Method: as §1, §2, §3, §4
# (§6) After diluting each sample to different concentrations with normal MH medium, 100 μl of each test sample solution at different concentrations was separately aspirated onto a 96-well sterile polystyrene plate. Drug solutions were added to the 1st to 10th well with the final concentrations of 16, 8, 4, 2, 1, 0.5, 0.25, 0.125, 0.06, and 0.03 mg/L in each well, respectively. The 11th well, as a blank control, was not added with drugs and bacteria. The 12th well, as a bacterial growth control, was added with bacteria but no drug.
# (§7) The test bacterial liquid was adjusted to a bacterial suspension of 0.5 Mcfarland standard with physiological saline, and diluted with MH broth at 1:100, and then added to the drug solution so that a final concentration of the bacterial liquid was approximately 10^4 CFU/ml; 100 μl of the bacterial liquid was further added to each of the above wells (the total volume in each well is 200 μl), which was sealed and placed in a 35-37° C. incubator for 18-20 h for testing the result. The OD600 value was measured by a microplate reader, Minimal Inhibitory Concentration (MIC) of a drug is the lowest concentration of the drug which prevents growth of bacteria in the wells. 1.2.2 MIC in iron-deficient MH medium
# [6] = system: Pseudomonas aeruginosa (4 strains); assay: MIC, broth microdilution, normal MH medium; assay type: cell-based; settings: Pseudomonas aeruginosa, multidrug-resistant clinical isolates (integrator I, IMP4), read-out: Antibacterial activity MIC, Pseudomonas aeruginosa (4 strains)
# Method: as §1, §2, §3, §4, §6, §7
# [7] = system: Escherichia coli (4 strains); assay: MIC, broth microdilution, normal MH medium; assay type: cell-based; settings: for MIC: Escherichia coli, clinical isolates (ESBLs), read-out: Antibacterial activity MIC, Escherichia coli (4 strains); for times more effective than BAL30072 in inhibitory activity against Escherichia coli: from MIC of Table 2
# Method: as §1, §2, §3, §4, §6, §7
# [8] = system: Klebsiella pneumoniae (4 strains); assay: MIC, broth microdilution, normal MH medium; assay type: cell-based; settings: for MIC: Klebsiella pneumoniae, multi-drug resistant clinical isolates (KPC2), read-out: Antibacterial activity MIC, Klebsiella pneumoniae (4 strains); for times more effective than BAL30072 in inhibitory activity against Klebsiella pneumoniae: from MIC of Table 2
# Method: as §1, §2, §3, §4, §6
# The OD600 value was measured by a microplate reader, Minimal Inhibitory Concentration (MIC) of a drug is the lowest concentration of the drug which prevents growth of bacteria in the wells. 1.2.2 MIC in iron-deficient MH medium
# [9] = system: Escherichia coli ATCC 35218; assay: MIC, broth microdilution, iron-deficient MH medium; assay type: cell-based; settings: Escherichia coli, ATCC35218; iron-deficient MH medium (16 mg/L 2,2'-bipyridine); quality control strain; read-out: Antibacterial activity MIC, Escherichia coli ATCC 35218
# Method: (§8) Strain for quality control: Escherichia coli ATCC35218, purchased from National Center of Clinical Laboratory.
# as §2, §3, §4, §5
# [10] = system: Escherichia coli ATCC 35218; assay: MIC, broth microdilution, normal MH medium; assay type: cell-based; settings: Escherichia coli, ATCC35218, quality control strain, read-out: Antibacterial activity MIC, Escherichia coli ATCC 35218
# Method: as §8, §2, §3, §4, §6, §7
# [11] = system: multidrug-resistant Klebsiella pneumoniae KR15-4 (KPC2); assay: In vivo efficacy in mice systemically infected with multidrug-resistant Klebsiella pneumoniae KR15-4 (KPC2); settings: Kunming mice, intraperitoneal infection, drug s.c. 0.5 h and 4 h after infection, deaths over 7 days, Bliss method; for ED50: Klebsiella pneumoniae, read-out: ED50 Subcutaneous injection
# Method: 4.1 Test strains: clinically isolated pathogenic multidrug-resistant Klebsiella pneumoniae KR15-4 (KPC2), provided by Sichuan Primed Shines Bio-tech Co., Ltd.
# 4.2 Test animals: Kunming mice, age: 4 to 5 weeks, weight: 18 to 22 g, half male, half female, SPF grade.
# 4.3 Test methods: Mice were randomly divided into several groups, 5 mice for each group, half male and half female, and 4 doses for each test drug: 12.5, 25, 50 and 100 mg/kg. The mice were intraperitoneally injected with 0.5 mL of 3.0×10^6 CFU/mL bacterial suspension for each mouse, and subcutaneously injected with the drug at the designed dose 0.5 h and 4 h after infection. The subcutaneous injection volume was 0.2 ml/20 g mouse weight; the number of deaths in mice was observed and recorded for 7 consecutive days. According to the number of deaths in mice, the half effective dose ED50 was calculated according to the Bliss method using the DAS 1.0 software, edited by Sun Ruiyuan et al.
smiles,measurement,setting,value
"CSCC(O/N=C(\C(=O)N[C@@H]1C(=O)N(OS(=O)(=O)O)C1(C)C)c1csc(N)n1)c1cc(=O)c(O)cn1O (stereo partly drawn) [Compound 16, (3S)-3-((Z)-2-(2-aminothiazol-4-yl)-2-((1-(1,5-dihydroxy-4-oxo-1,4-dihydropyridin-2-yl)-2-(methylthio)ethoxy)imine)acetamido)-2,2-dimethyl-4-oxoazetidine-1-hydrogen sulfate]",MIC,[1],0.5 to 1 µg/mL
same,MIC,[2],0.125 to 1 µg/mL
same,MIC,[3],0.5 to 1 µg/mL
same,times more effective than BAL30072 in inhibitory activity against Klebsiella pneumonia,[3],64-128 times
same,MIC,[4],0.06 to 0.25 µg/mL
same,MIC,[5],1 to 2 µg/mL
same,MIC,[6],0.25 to 2 µg/mL
same,MIC,[7],0.125 to 0.5 µg/mL
same,times more effective than BAL30072 in inhibitory activity against Escherichia coli,[7],2-8 times
same,MIC,[8],0.5 to 1 µg/mL
same,times more effective than BAL30072 in inhibitory activity against Klebsiella pneumoniae,[8],64-128 times
same,MIC,[9],< 0.03 µg/mL
same,MIC,[10],< 0.03 µg/mL
"CC(O/N=C(\C(=O)N[C@@H]1C(=O)N(OS(=O)(=O)O)C1(C)C)c1nc(N)sc1Cl)c1cc(=O)c(O)cn1O (stereo partly drawn) [Compound 22, (3S)-3-((Z)-2-(2-amino-5-chlorothiazol-4-yl)-2-((1-(1,5-dihydroxy-4-oxo-1,4-dihydropyridin-2-yl)ethoxyl)imine)acetamido)-2,2-dimethyl-4-oxoazetidine-1-hydrogen sulfate]",MIC,[1],1 µg/mL
same,MIC,[2],0.5 to 1 µg/mL
same,MIC,[3],1 µg/mL
same,times more effective than BAL30072 in inhibitory activity against Klebsiella pneumonia,[3],64 times
same,MIC,[4],0.06 to 0.25 µg/mL
same,MIC,[5],2 µg/mL
same,MIC,[6],0.5 to 2 µg/mL
same,MIC,[7],0.06 to 0.5 µg/mL
same,times more effective than BAL30072 in inhibitory activity against Escherichia coli,[7],4-16 times
same,MIC,[8],1 µg/mL
same,times more effective than BAL30072 in inhibitory activity against Klebsiella pneumoniae,[8],64 times
same,MIC,[9],< 0.03 µg/mL
same,MIC,[10],< 0.03 µg/mL
"CC(C)C(O/N=C(\C(=O)N[C@@H]1C(=O)N(OS(=O)(=O)O)C1(C)C)c1nc(N)sc1Cl)c1cc(=O)c(O)cn1O (stereo partly drawn) [Compound 24, (3S)-3-((Z)-2-(2-amino-5-chlorothiazol-4-yl)-2-((1-(1,5-dihydroxy-4-oxo-1,4-dihydropyridin-2-yl)-2-methylpropoxy)imine)acetamido)-2,2-dimethyl-4-oxoazetidine-1-hydrogen sulfate]",MIC,[1],1 to 2 µg/mL
same,MIC,[2],0.25 to 2 µg/mL
same,MIC,[3],0.125 to 0.5 µg/mL
same,times more effective than BAL30072 in inhibitory activity against Klebsiella pneumonia,[3],128-512 times
same,MIC,[4],0.06 to 0.25 µg/mL
same,MIC,[9],< 0.03 µg/mL
"C[C@H](O/N=C(\C(=O)N[C@@H]1C(=O)N(OS(=O)(=O)O)C1(C)C)c1nc(N)sc1Cl)c1cc(=O)c(O)cn1O [Compound 26, (S)-3-((Z)-2-(2-amino-5-chlorothiazol-4-yl)-2-(((S)-1-(1,5-dihydroxy-4-oxo-1,4-dihydropyridin-2-yl)ethoxy)imine)acetamido)-2,2-dimethyl-4-oxoazetidine-1-hydrogen sulfate]",MIC,[1],0.5 to 1 µg/mL
same,MIC,[2],0.25 to 1 µg/mL
same,MIC,[3],0.5 to 4 µg/mL
same,times more effective than BAL30072 in inhibitory activity against Klebsiella pneumonia,[3],16-128 times
same,MIC,[4],0.03 to 0.25 µg/mL
same,MIC,[5],1 µg/mL
same,MIC,[6],0.5 to 1 µg/mL
same,MIC,[7],0.25 to 1 µg/mL
same,MIC,[8],1 to 4 µg/mL
same,MIC,[9],< 0.03 µg/mL
same,MIC,[10],< 0.03 µg/mL
"CC(C)[C@H](O/N=C(\C(=O)N[C@@H]1C(=O)N(OS(=O)(=O)O)C1(C)C)c1csc(N)n1)c1cc(=O)c(O)cn1O [Compound 28, (3S)-3-((Z)-2-(2-aminothiazol-4-yl)-2-(((S)-1-(1,5-dihydroxy-4-oxo-1,4-Dihydropyridin-2-yl)-2-methylisopropyloxy)imine)acetamido)-2,2-dimethyl-4-oxoazetidine-1-hydrogen sulfate]",MIC,[1],1 to 2 µg/mL
same,MIC,[2],0.125 to 1 µg/mL
same,MIC,[3],1 µg/mL
same,times more effective than BAL30072 in inhibitory activity against Klebsiella pneumonia,[3],64 times
same,MIC,[4],0.125 to 0.25 µg/mL
same,MIC,[9],< 0.03 µg/mL
"CC(C)[C@H](O/N=C(\C(=O)N[C@@H]1C(=O)N(OS(=O)(=O)O)C1(C)C)c1nc(N)sc1Cl)c1cc(=O)c(O)cn1O [Compound 29, (3S)-3-((Z)-2-(2-amino-5-chlorothiazol-4-yl)-2-(((S)-1-(1,5-dihydroxy-4-oxo-1,4-dihydropyridin-2-yl)-2-methylpropoxy)imine)acetamido)-2,2-dimethyl-4-oxoazetidine-1-hydrogen sulfate]",MIC,[1],0.5 to 1 µg/mL
same,MIC,[2],0.06 to 1 µg/mL
same,MIC,[3],0.25 to 0.5 µg/mL
same,times more effective than BAL30072 in inhibitory activity against Klebsiella pneumonia,[3],128-256 times
same,MIC,[4],0.125 to 1 µg/mL
same,MIC,[5],1 to 2 µg/mL
same,MIC,[6],0.25 to 2 µg/mL
same,MIC,[7],1 to 2 µg/mL
same,MIC,[8],1 to 4 µg/mL
same,MIC,[9],< 0.03 µg/mL
same,MIC,[10],< 0.03 µg/mL
"C[C@H]1[C@H](NC(=O)/C(=N\OC(C)(C)C(=O)O)c2csc(N)n2)C(=O)N1S(=O)(=O)O [aztreonam, reference compound]",ED50,[11],> 100 mg/kg
same,ED50 Subcutaneous injection,[11],>100 mg/kg
same,MIC,[10],0.5 µg/mL
"CO/N=C(\C(=O)N[C@@H]1C(=O)N2C(C(=O)O)=CCS[C@H]12)c1csc(N)n1 [ceftizoxime sodium, reference compound]",MIC,[5],32 to 64 µg/mL
same,MIC,[6],> 64 µg/mL
same,MIC,[7],0.5 to 2 µg/mL
same,MIC,[8],32 to 64 µg/mL
same,MIC,[10],0.25 µg/mL
"C[C@@H](O)[C@H]1C(=O)N2C(C(=O)O)=C(S[C@@H]3CN[C@H](C(=O)N(C)C)C3)[C@H](C)[C@H]12 [meropenem, reference compound]",ED50,[11],> 100 mg/kg
same,ED50 Subcutaneous injection,[11],>100 mg/kg
same,MIC,[5],64 µg/mL
same,MIC,[6],32 to 64 µg/mL
same,MIC,[7],0.25 to 32 µg/mL
same,MIC,[8],32 to 64 µg/mL
same,MIC,[10],0.125 µg/mL
